According to patent US10745400B2, “Inhibition of BMP signaling, compounds, compositions and uses thereof” (Vanderbilt University, priority 2018, dated 2020):
Numbering of substitutions follows the chain as printed. pIC50: −log10 of the molar value.

What was measured:
[1] = target: ALK1/ACVRL1 (Homo sapiens, UniProt P37023); assay: Kinase assay (33P-ATP filter-binding), ALK1; format: biochemical; conditions: read-out: Kinase Selectivity ALK1/ACVRL1
Method: (§1) The kinase assays were carried out briefly as follows. Substrate was prepared in Base Reaction Buffer (20 mM Hepes (pH 7.5), 10 mM MgCl2, 1 mM EGTA, 0.02% Brij35, 0.02 mg/ml BSA, 0.1 mM Na3VO4, 2 mM DTT, 1% DMSO). The indicated kinases was delivered into the substrate solution and allowed to gently mix. Next, the specific compound was delivered in DMSO into the kinase mixture by Acoustic technology (Echo550; nanoliter range), and allowed to incubate for 20 minutes at room temperature. Next, ^33P-ATP was delivered into the reaction mixture to initiate the reaction and allowed to incubate at room temperature. After 2 hours, the reactions were spotted onto P81 ion exchange paper and the kinase activity is detected by the filter-binding method.

[2] = target: T1, ALK2/ACVR1 (Homo sapiens, UniProt Q04771); assay: Kinase assay (33P-ATP filter-binding), ALK2; format: biochemical; conditions: 20 mM; read-out: Kinase Selectivity ALK2/ACVR1 (20 mM)
T1 sequence (Q04771 21-509): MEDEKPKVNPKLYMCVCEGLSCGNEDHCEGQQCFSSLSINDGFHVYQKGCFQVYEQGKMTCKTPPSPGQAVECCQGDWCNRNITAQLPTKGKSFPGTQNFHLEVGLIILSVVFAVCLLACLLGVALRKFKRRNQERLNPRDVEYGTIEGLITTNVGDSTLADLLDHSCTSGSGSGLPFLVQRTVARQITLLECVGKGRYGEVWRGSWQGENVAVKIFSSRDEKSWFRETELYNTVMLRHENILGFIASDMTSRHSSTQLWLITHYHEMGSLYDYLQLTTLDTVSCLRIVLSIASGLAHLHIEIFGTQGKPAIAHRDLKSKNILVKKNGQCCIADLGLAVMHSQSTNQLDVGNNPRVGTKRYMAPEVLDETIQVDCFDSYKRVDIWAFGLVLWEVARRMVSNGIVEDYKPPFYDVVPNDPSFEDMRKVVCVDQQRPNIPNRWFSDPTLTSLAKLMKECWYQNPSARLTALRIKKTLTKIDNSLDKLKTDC
Method: as §1

[3] = target: T2, ALK2 (Q207D) (Homo sapiens, UniProt Q04771, Q207D); assay: Kinase assay (33P-ATP filter-binding), ALK2 Q207D; format: biochemical; conditions: Q207D mutant, 20 mM; read-out: Kinase Selectivity ALK2 (Q207D, 20 mM)
T2 sequence (Q04771 21-509 Q207D): T1 sequence (Q04771 21-509) with Q187D
Method: as §1

[4] = target: T3, ALK2 (R206H) (Homo sapiens, UniProt Q04771, R206H); assay: Kinase assay (33P-ATP filter-binding), ALK2 R206H; format: biochemical; conditions: R206H mutant, 20 mM; read-out: Kinase Selectivity ALK2 (R206H, 20 mM)
T3 sequence (Q04771 21-509 R206H): T1 sequence (Q04771 21-509) with R186H
Method: as §1

[5] = target: ALK3/BMPR1A (Homo sapiens, UniProt P36894); assay: Kinase assay (33P-ATP filter-binding), ALK3; format: biochemical; conditions: 1 mM; read-out: Kinase Selectivity ALK3/BMPR1A (1 mM)
Method: as §1

[6] = Intrinsic clearance, human; format: in vitro ADME; conditions: human
[7] = Intrinsic clearance, mouse; format: in vitro ADME; conditions: mouse
[8] = Protein binding, human; format: in vitro ADME
[9] = Protein binding, mouse; format: in vitro ADME
[10] = system: BMP-responsive C2C12 mouse myoblast cells stimulated with BMP4; assay: BMP4 cell assay (Id1 promoter-firefly luciferase reporter); format: cell-based; conditions: Mus musculus, C2C12, C2C12 cells, BMP4 50 ng/mL, overnight
Method: The BMP4 cell assay were carried out briefly as follows. Stably transfected BMP-responsive C2C12 mouse myoblast cells (containing the Idl promoter-firefly luciferase reporter) were seeded in 96-well plates and incubated overnight with the compounds and BMP4 (50 ng/mL). The cells were then lysed, and cell extracts were then subjected to the firefly luciferase assay using Steady-Glo luciferase assay kit (Promega). The results were normalized to cell titers, as measured using Cell Titer-Glo luminescence assay (Promega). […] Relative activity was quantified by the ratio of firefly to Renilla luciferase activities using the dual luciferase assay kit (Promega).

[11] = CL-Hep, value in parentheses, read-out: Intrinsic Clearance Human (CL-Hep)
[12] = read-out: Intrinsic Clearance Human
[13] = CL-Hep, value in parentheses, read-out: Intrinsic Clearance Mouse (CL-Hep)
[14] = read-out: Intrinsic Clearance Mouse

ALK1/ACVRL1, sequence (P37023 22-503): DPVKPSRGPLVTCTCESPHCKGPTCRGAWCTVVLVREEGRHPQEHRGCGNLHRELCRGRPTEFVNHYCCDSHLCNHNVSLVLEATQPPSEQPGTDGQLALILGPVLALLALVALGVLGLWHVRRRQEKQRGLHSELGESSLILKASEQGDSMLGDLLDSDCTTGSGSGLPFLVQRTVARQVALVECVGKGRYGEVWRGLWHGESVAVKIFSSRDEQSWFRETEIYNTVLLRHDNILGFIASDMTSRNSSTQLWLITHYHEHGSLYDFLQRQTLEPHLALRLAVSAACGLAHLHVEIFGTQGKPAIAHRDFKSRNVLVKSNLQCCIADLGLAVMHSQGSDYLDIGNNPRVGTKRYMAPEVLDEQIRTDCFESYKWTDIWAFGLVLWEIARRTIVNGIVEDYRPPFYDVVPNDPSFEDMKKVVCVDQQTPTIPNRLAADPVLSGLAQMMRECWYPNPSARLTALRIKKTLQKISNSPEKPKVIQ
ALK3/BMPR1A, sequence (P36894 24-532): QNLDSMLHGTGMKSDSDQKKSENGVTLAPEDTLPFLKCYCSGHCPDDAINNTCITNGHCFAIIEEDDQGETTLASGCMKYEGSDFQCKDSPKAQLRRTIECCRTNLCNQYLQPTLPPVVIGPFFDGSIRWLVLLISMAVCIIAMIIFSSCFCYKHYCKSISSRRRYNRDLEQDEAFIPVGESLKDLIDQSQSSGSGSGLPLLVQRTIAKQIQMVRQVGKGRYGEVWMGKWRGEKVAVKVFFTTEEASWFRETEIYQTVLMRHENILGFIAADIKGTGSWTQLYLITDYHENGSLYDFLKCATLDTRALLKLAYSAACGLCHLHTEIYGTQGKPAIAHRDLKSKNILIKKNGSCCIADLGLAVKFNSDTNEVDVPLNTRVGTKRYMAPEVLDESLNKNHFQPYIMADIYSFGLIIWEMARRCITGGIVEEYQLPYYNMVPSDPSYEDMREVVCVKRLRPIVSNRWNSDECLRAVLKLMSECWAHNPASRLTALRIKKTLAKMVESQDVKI

Row | Compound | pIC50 [1] | pIC50 [2] | pIC50 [3] | pIC50 [4] | pIC50 [5] | CLint scaled [6, 11] | CLint scaled [6, 12] | CLint scaled [7, 13] | CLint scaled [7, 14] | Protein Binding (% Free) Human [8] | Protein Binding (% Free) Mouse [9] | pIC50 [10]
1 | Cc1cc(-c2cnc3cc(-c4ccc(C5COCC(C)N5)cc4)ccn23)c2cc(F)ccc2n1 (stereo not drawn) [Compound 20] | 7.64 | > 8.29 | > 8.29 | > 8.29 | > 8.29 | 17.1 mL/min/kg | 117 mL/min/kg | 50.2 mL/min/kg | 114 mL/min/kg | 4.01 % Free | 1.36 % Free | –
2 | Cc1cc(-c2cnc3cc(-c4ccc(C5COC(C)CN5)cc4)ccn23)c2cc(F)cc(F)c2n1 (stereo not drawn) [Compound 19] | 7.85 | > 8.29 | > 8.29 | > 8.29 | > 8.29 | 15.9 mL/min/kg | 77.2 mL/min/kg | 53.3 mL/min/kg | 131 mL/min/kg | 3.74 % Free | 3.15 % Free | –
3 | Cc1cc(-c2cnc3cc(-c4ccc(C5CNCCN5)cc4)ccn23)c2ccccc2n1 (stereo not drawn) [Compound 12] | – | – | – | – | – | < 10.7 mL/min/kg | < 23.1 mL/min/kg | < 32.9 mL/min/kg | < 49.5 mL/min/kg | 13.6 % Free | 4.94 % Free | 7.87

Now from value to compound:

Row | pIC50 [1] | pIC50 [2] | pIC50 [3] | pIC50 [4] | pIC50 [5] | CLint scaled [6, 11] | CLint scaled [6, 12] | CLint scaled [7, 13] | CLint scaled [7, 14] | Protein Binding (% Free) Human [8] | Protein Binding (% Free) Mouse [9] | pIC50 [10] | Compound
4 | 6.48 | 7.83 | 7.16 | 7.10 | 8.24 | < 10.7 mL/min/kg | < 23.1 mL/min/kg | 47.1 mL/min/kg | 99 mL/min/kg | 0.61 % Free | 1.03 % Free | – | Cc1cc(-c2cnc3cc(-c4ccc(N5CCNC(C)(C)C5)cc4)ccn23)c2cc(F)cc(F)c2n1 [Compound 26]
5 | 7.77 | 8.21 | > 8.29 | 8.12 | > 8.29 | 12.3 mL/min/kg | 29.6 mL/min/kg | < 31.9 mL/min/kg | < 49.5 mL/min/kg | 39.4 % Free | 21.2 % Free | – | c1cnc2c(-c3cnc4cc(-c5ccc(C6CNCCN6)cc5)ccn34)ccnc2c1 (stereo not drawn) [Compound 34]
